This is an account of results in patent publication US11154544B2, “Amide derivatives as Nav1.7 and Nav1.8 blockers” (RaQualia Pharma Inc., priority 2017, dated 2021).

Some results are limits rather than exact numbers.

The target of the first test is Nav1.7 (Homo sapiens (Human), UniProt Q15858). As to the kind of experiment: EFS-FRET assay. It is filed as cell-based. Conditions: EFS-FRET, CHO cells expressing human Nav1.7; read-out: IC50 against Nav1.7. How it is done: This screen is used to determine the effects of compounds on human Nav1.7 channels, utilizing electrical field stimulation (EFS) system in 96-well plate format on FDSS (Hamamatsu Photonics) platform. The change of membrane potential is monitored with FRET dye pair, DiSBAC2(3) and PTS 18.
Sequence of Nav1.7 (Q15858 whole entry): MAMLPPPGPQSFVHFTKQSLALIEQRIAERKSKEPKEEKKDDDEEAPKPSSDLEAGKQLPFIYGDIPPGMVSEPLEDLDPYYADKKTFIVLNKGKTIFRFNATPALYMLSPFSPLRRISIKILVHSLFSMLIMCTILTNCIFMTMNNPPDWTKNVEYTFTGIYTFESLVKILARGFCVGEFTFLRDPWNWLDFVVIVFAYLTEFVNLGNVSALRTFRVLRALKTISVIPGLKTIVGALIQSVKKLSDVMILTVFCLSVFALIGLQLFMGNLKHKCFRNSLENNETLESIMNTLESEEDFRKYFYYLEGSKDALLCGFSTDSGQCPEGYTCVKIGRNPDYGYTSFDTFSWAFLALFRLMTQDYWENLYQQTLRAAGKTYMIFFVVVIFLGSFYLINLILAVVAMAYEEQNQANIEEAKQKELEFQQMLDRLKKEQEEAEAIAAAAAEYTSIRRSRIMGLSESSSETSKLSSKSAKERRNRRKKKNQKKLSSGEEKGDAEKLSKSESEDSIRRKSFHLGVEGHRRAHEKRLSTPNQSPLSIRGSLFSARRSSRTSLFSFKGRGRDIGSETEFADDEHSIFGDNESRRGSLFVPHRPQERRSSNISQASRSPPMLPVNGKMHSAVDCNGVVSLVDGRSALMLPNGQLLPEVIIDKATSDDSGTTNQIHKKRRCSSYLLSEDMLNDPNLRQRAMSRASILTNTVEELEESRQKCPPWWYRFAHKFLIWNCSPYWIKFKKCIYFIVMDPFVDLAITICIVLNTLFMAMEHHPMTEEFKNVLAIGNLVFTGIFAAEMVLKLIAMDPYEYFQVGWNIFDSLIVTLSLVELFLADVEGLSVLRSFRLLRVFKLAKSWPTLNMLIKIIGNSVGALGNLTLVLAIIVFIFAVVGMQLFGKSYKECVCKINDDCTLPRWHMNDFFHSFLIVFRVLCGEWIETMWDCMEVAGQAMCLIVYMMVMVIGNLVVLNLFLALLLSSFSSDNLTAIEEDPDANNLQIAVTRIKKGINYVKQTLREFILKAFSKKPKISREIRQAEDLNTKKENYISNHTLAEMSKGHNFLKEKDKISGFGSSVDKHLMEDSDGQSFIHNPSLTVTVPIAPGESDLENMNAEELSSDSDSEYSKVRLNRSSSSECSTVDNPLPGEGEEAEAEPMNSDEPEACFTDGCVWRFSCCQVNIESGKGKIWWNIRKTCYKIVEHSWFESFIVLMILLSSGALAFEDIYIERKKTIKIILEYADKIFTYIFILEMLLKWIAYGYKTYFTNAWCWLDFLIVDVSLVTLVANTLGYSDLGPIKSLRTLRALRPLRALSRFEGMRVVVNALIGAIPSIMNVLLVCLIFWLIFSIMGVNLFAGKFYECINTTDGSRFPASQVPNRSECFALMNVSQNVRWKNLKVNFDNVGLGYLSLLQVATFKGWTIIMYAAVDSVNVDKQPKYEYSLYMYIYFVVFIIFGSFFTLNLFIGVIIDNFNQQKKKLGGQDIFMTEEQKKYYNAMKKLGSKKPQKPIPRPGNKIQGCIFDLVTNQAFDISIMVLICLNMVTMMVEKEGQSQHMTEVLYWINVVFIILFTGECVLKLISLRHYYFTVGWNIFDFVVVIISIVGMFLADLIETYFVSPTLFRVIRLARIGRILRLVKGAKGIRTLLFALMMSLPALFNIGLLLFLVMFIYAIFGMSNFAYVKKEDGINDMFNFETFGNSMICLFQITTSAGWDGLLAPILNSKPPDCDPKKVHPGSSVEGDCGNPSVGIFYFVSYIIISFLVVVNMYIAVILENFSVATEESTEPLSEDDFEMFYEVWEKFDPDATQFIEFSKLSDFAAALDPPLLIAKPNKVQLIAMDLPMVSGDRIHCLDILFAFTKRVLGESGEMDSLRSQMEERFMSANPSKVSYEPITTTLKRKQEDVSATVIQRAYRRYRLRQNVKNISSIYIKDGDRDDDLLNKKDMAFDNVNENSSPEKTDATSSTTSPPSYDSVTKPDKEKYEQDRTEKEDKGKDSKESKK
CHO (Chinese hamster ovary) cells expressing human Nav1.7 channels are grown in T225 flasks, in a 5% CO2 humidified incubator to about 80% confluence. Media composition consists of HAM/F^.12 with Glutamax I, 10% FCS, 100 units/mL penicillin and 100 microgram/mL hygromycin.
Seed each cell lines (1×10^5 cells/well) into 96-well plates prior to experimentation.
Incubate at 37° C. in 5% CO2, for 24 hours.
Wash each well with assay buffer (140 mM NaCl, […], 10 mM D-Glucose, 2 mM CaCl2, 1 mM MgCl2, 10 mM HEPES, pH 7.4 adjusted with NaOH) twice.
Add 1st loading solution containing 10 microM PTS18 and 0.06% Pluronic F-127 in assay buffer.
Incubate the plate at rt in dark for 1 hour. • Remove 1st loading solution and add 2nd loading solution containing 12.5 microM DiSBAC2(3), 1.25 mM Xylene Fast Yellow and 0.0075% Pluronic F-127 in assay buffer. • Place the plate under the dark at rt for 25 minutes. • Add compound solutions into the assay plate. • Set the assay plate in FDSS and place an EFS device on the plate. • Measure EFS-induced fluorescent response by FDSS.
The data are analyzed and reported as normalized ratios of intensities measured at […]. The process of calculating these ratios is performed as follows:
This analysis is performed using a computerized specific program designed for
FDSS generated data. Fluorescence ratio values are plotted using XLfit to determine an IC50 value for each, compound.
As to `CCC(=O)Nc1cc(C(=O)NCCOc2ccc(C(F)(F)F)cn2)cc(C)n1` [Example 12], the IC50 is below 500 nM.
Turning to `CC(=O)Nc1cc(C(=O)NCCOc2ccc3cc(C(F)(F)F)ccc3n2)cc(C)n1` [Example 58], the IC50 is below 500 nM.
Same read-out and setting: under `COc1cc(C(F)(F)F)ccc1OCCNC(=O)c1ccnc(NC(=O)C2CC2)n1` [Example 134] stands below 500 nM.
Same read-out and setting: under `O=C(NCCOc1ccc(C(F)(F)F)cc1Cl)c1ccnc(NC(=O)C2CC2)n1` [Example 43] stands below 500 nM; under `CC(=O)Nc1cc(C(=O)NCCOc2ccc(OC(F)(F)F)cc2Cl)cc(C)n1` [Example 116], below 500 nM; under `COc1cc(C(F)(F)F)ccc1OCCNC(=O)c1ccnc(NC(C)=O)c1` [Example 126], below 500 nM.
The same measure, in the same setting: under `O=C(NCCOc1ccc(C(F)(F)F)cc1Cl)c1ccnc(NC(=O)C2CC2)c1` [Example 40] stands below 500 nM; under `CC(=O)Nc1cc(C(=O)NCCOc2ccc(OC(F)(F)F)cc2Cl)ccn1` [Example 113], below 500 nM; under `CC(=O)Nc1cc(C(=O)NCCOc2ccc(C(F)(F)F)cc2C)cc(C)n1` [Example 140], below 500 nM.
Turning to `Cc1cc(C(=O)NCCNc2ncc(C(F)(F)F)cc2Cl)cc(NC(=O)C2CC2)n1` [Example 26], the IC50 was below 500 nM.
With `CC(=O)Nc1cc(C(=O)NCCOc2ccc(OC(F)(F)F)c(F)c2)ccn1` [Example 154], the IC50 is below 500 nM.
Still for that read-out and setting: to `CC(=O)Nc1cc(C(=O)NCCCc2ncc(C(F)(F)F)cc2Cl)cc(C)n1` [Example 28] belongs below 500 nM.
For `CCC(=O)Nc1cc(C(=O)NCCOc2ccc3cc(C(F)(F)F)ccc3n2)ccn1` [Example 57], the IC50 was below 500 nM.
Same read-out and setting: under `Cc1cc(C(=O)NCCOc2ncc(C(F)(F)F)cc2Cl)cc(NC(=O)C2CC2)n1` [Example 25] stands below 500 nM; under `Cc1cc(C(=O)NCCOc2ccc(C(F)(F)F)cc2Cl)cc(NC(=O)C2CC2)n1` [Example 41], below 500 nM; under `CC(C)C(=O)Nc1cc(C(=O)N[C@H](C)COc2ncc(C(F)(F)F)cc2Cl)ccn1` [Example 68], below 500 nM.
Still for that read-out and setting: to `CCC(=O)Nc1cc(C(=O)N[C@H](C)COc2ncc(C(F)(F)F)cc2Cl)ccn1` [Example 64] belongs below 500 nM; to `O=C(NCCNc1ncc(C(F)(F)F)cc1Cl)c1ccnc(NC(=O)C2CC2)n1` [Example 38], below 500 nM.
Still for that read-out and setting: to `O=C(NCCOc1ccc(OC(F)(F)F)cc1Cl)c1ccnc(NC(=O)C2CC2)c1` [Example 117] belongs below 500 nM; to `Cc1cc(C(F)(F)F)ccc1OCCNC(=O)c1ccnc(NC(=O)C2CC2)n1` [Example 146], below 500 nM; to `CCC(=O)Nc1cc(C(=O)NCCOc2ccc(OC(F)(F)F)cc2Cl)cc(C)n1` [Example 105], below 500 nM.
For the compound `CCC(=O)Nc1cc(C(=O)NCCOc2ccc(C(F)(F)F)cc2OC)ccn1` [Example 127], the IC50 is below 500 nM.
For `CC(=O)Nc1cc(C(=O)NCCOc2ccc(C(F)(F)F)cc2C)ccn1` [Example 138], the IC50 is below 500 nM.
Turning to `CC(C)C(=O)Nc1cc(C(=O)NCCOc2ccc(C(F)(F)F)cc2F)ccn1` [Example 96], the IC50 was below 500 nM.
Same read-out and setting: to `CC(C)C(=O)Nc1cc(C(=O)NCCOc2ccc3cc(C(F)(F)F)ccc3n2)ccn1` [Example 46] belongs below 500 nM; to `Cc1cc(C(=O)NCCOc2ccc(C(F)(F)F)cc2F)cc(NC(=O)C2CC2)n1` [Example 97], below 500 nM.
With `CCC(=O)Nc1cc(C(=O)NCCOc2ccc(C(F)(F)F)cc2C)ccn1` [Example 139], the IC50 is below 500 nM.
Regarding `CCC(=O)Nc1cc(C(=O)NCCOc2ccc3cc(C(F)(F)F)ccc3n2)cc(C)n1` [Example 44], the IC50 was below 500 nM.
On to `CCC(=O)Nc1cc(C(=O)NCCOc2ccc3cc(OCC(F)(F)F)ccc3c2)cc(C)n1` [Example 49], for which the IC50 is below 500 nM.
Take `CCC(=O)Nc1cc(C(=O)NCCOc2ccc(C(F)(F)F)cc2F)cc(C)n1` [Example 94]: the IC50 was below 500 nM.
For `Cc1cc(C(=O)NC[C@@H](C)Oc2ncc(C(F)(F)F)cc2Cl)cc(NC(=O)C(C)C)n1` [Example 77], the IC50 was below 500 nM.
For the compound `COc1cc(C(F)(F)F)ccc1OCCNC(=O)c1cc(C)nc(NC(=O)C(C)C)c1` [Example 133], the IC50 was below 500 nM.
On the same count and under the same terms, to `CCC(=O)Nc1cc(C(=O)NCCOc2ncc(C(F)(F)F)cc2Cl)ccn1` [Example 9] belongs below 500 nM; to `CC(C)C(=O)Nc1cc(C(=O)NCCNc2ncc(C(F)(F)F)cc2Cl)ccn1` [Example 7], below 500 nM; to `Cc1cc(C(=O)NC[C@@H](C)Oc2ncc(C(F)(F)F)cc2Cl)cc(NC(=O)C2CC2)n1` [Example 76], below 500 nM.
Same read-out and setting: to `O=C(NCCOc1ccc(OC(F)(F)F)c(F)c1)c1ccnc(NC(=O)C2CC2)c1` [Example 151] belongs below 500 nM; to `CC(C)C(=O)Nc1cc(C(=O)NCCOc2ccc(S(F)(F)(F)(F)F)cc2)ccn1` [Example 34], below 500 nM; to `CCC(=O)Nc1cc(C(=O)NCCOc2ccc(C(F)(F)F)cc2Cl)cc(C)n1` [Example 39], below 500 nM.
In the case of `CCC(=O)Nc1cc(C(=O)NCCCc2ncc(C(F)(F)F)cc2Cl)ccn1` [Example 30], the IC50 is below 500 nM.
On to `CC(=O)Nc1cc(C(=O)NCCOc2ccc3cc(C(F)(F)F)ccc3n2)ccn1` [Example 56], for which the IC50 was below 500 nM.
Same read-out and setting: under `CCC(=O)Nc1nc(C)cc(C(=O)NCCOc2ncc(C(F)(F)F)cc2Cl)n1` [Example 89] stands below 500 nM; under `CC(=O)Nc1cc(C(=O)NCCOc2ncc(C(F)(F)F)cc2Cl)cc(C)n1` [Example 10], below 500 nM.
As to `COc1cc(C(F)(F)F)ccc1OCCNC(=O)c1ccnc(NC(=O)C(C)C)c1` [Example 131], the IC50 is below 500 nM.
On to `CC(=O)Nc1cc(C(=O)NCCOc2ccc(OC(F)(F)F)c(F)c2)cc(C)n1` [Example 152], for which the IC50 is below 500 nM.
As to `Cc1cc(C(=O)NCCOc2ccc(C(F)(F)F)cc2C)cc(NC(=O)C(C)C)n1` [Example 145], the IC50 is below 500 nM.
On to `CC(=O)Nc1cc(C(=O)NC[C@@H](C)Oc2ncc(C(F)(F)F)cc2Cl)cc(C)n1` [Example 73], for which the concentration for half-maximal inhibition (IC50) is below 500 nM.
`CCC(=O)Nc1cc(C(=O)N[C@H](C)COc2ncc(C(F)(F)F)cc2Cl)cc(C)n1` [Example 66]: the IC50 is below 500 nM.
For `CCCC(=O)Nc1cc(C(=O)NCCOc2ncc(C(F)(F)F)cc2Cl)ccn1` [Example 87], the IC50 was below 500 nM.
On the same count and under the same terms, under `Cc1cc(C(=O)NCCOc2ccc3cc(C(F)(F)F)ccc3n2)cc(NC(=O)C2CC2)n1` [Example 59] stands below 500 nM; under `O=C(NCCOc1ncc(C(F)(F)F)cc1Cl)c1cccnc1C(F)(F)F` [No. 1-63, reference compound], above 3000 nM; under `Cc1cc(C(=O)N[C@H](C)COc2ncc(C(F)(F)F)cc2Cl)cc(NC(=O)C(C)C)n1` [Example 70], below 500 nM.
For the compound `CCC(=O)Nc1cc(C(=O)NCCOc2ncc(C(F)(F)F)cc2Cl)cc(C)n1` [Example 15], the IC50 is below 500 nM.
As for `O=C(NCCOc1ncc(C(F)(F)F)cc1Cl)c1ccnc(NC(=O)C2CC2)n1` [Example 36], the IC50 is below 500 nM.
The same measure, in the same setting: under `CCC(=O)Nc1cc(C(=O)NCCOc2ccc(C(F)(F)F)cc2OC)cc(C)n1` [Example 129] stands below 500 nM.
On to `C[C@H](COc1ncc(C(F)(F)F)cc1Cl)NC(=O)c1ccnc(NC(=O)C2CC2)c1` [Example 67], for which the IC50 was below 500 nM.
The same measure, in the same setting: to `Cc1cc(C(=O)NCCOc2ccc(OC(F)(F)F)cc2Cl)cc(NC(=O)C(C)C)n1` [Example 108] belongs below 500 nM; to `Cc1cc(C(=O)NCCOc2ccc(C(F)(F)F)cc2Cl)cc(NC(=O)C(C)C)n1` [Example 42], below 500 nM; to `COc1cc(C(F)(F)F)ccc1OCCNC(=O)c1cc(C)nc(NC(=O)C2CC2)c1` [Example 132], below 500 nM.
The same measure, in the same setting: to `Cc1cc(C(F)(F)F)ccc1OCCNC(=O)c1ccnc(NC(=O)C2CC2)c1` [Example 142] belongs below 500 nM.
Turning to `CC(C)C(=O)Nc1cc(C(=O)NCCOc2ccc(C(F)(F)F)cc2Cl)ccn1` [Example 22], the IC50 is below 500 nM.
Take `O=C(NCCOc1ccc(OC(F)(F)F)cc1Cl)C1C=C(NC(=O)C2CC2)N=CC1` (stereo not drawn) [Example 106]: the IC50 was below 500 nM.
Still for that read-out and setting: to `O=C(NCCOc1ccc(S(F)(F)(F)(F)F)cc1)c1ccnc(NC(=O)C2CC2)c1` [Example 33] belongs below 500 nM; to `CC(=O)Nc1cc(C(=O)N[C@H](C)COc2ncc(C(F)(F)F)cc2Cl)cc(C)n1` [Example 65], below 500 nM; to `Cc1cc(C(=O)NCCOc2ccc3cc(C(F)(F)F)ccc3n2)cc(NC(=O)C(C)C)n1` [Example 60], below 500 nM.
On the same count and under the same terms, to `Cc1cc(C(F)(F)F)ccc1OCCNC(=O)c1ccnc(NC(=O)C(C)C)c1` [Example 143] belongs below 500 nM.

Staying with this test, now noted: Table 1; read-out: Nav1.7 activity (IC50).
As to `O=C(NCCOc1ncc(C(F)(F)F)cc1Cl)c1cccnc1C(F)(F)F` [No. 1-63, reference compound], the IC50 was above 3000 nM.

A word on the IC50: it is the concentration that inhibits the measured activity by half.
